From patent publication US20250099485A1, “COMPOSITIONS FOR PROMOTING HAIR GROWTH” (ESTETRA SRL, priority 2021, published 2025) come the findings set out here.

Format in all cases: cell-based
The test system of experiment [1] is human epidermal keratinocytes. In words: Wound healing gene expression RT-qPCR array, keratinocytes. To be noted: 10^−7M, 15 h, relative to ethanol control. The text has this:
The healing properties of E4 were investigated at the transcriptional level by studying gene expression changes by RT-qPCR. 84 genes qPCR arrays focusing on the wound healing process were used. These arrays contain genes important for the three phases of wound healing process, including extra-cellular matrix (ECM) remodeling factors, inflammatory cytokines and chemokines as well as growth factors and major signaling molecules. The changes in gene expression were interpreted in a dermo cosmetic context in order to highlight the potential benefits of the E4 towards wound healing.
After 24 h seeded on 25 cm^2 culture flasks (T25), cells were treated with E4 during 15 h. […]
The RNA concentration was determined by spectrophotometric measurement (QIAxpert, Qiagen) and the RNA quality was analyzed by capillarity electrophoresis (Agilent Bioanalyzer 2100—Agilent RNA 6000 Nano Kit). […]
The qPCR method was used to quantify the expression changes of specific markers in the cDNA populations. […]
The amplification of target genes was performed following the supplier's recommendations thanks to a “HotStart Taq DNA Polymerase” and to the use of SYBR Green as detection method. The SYBR Green is a marker emitting fluorescence once inserted between the paired bases of nucleic acids. The fluorescence intensity is thus directly proportional to the quantity of produced amplicons. […]

Experiment [2] concerns fibroblasts isolated from female C57Bl1/6 mice. The experiment is described as follows: Fibroblast monolayer scratch assay, mouse. The note with it: 10^−7 M, compared with E2. The method, then: Confluent wells of both primary keratinocytes and fibroblasts were subjected to a highly validated scratch wounding procedure (using a 1 mL sterile filter tip). Post-scratching, cells were rinsed with DPBS and cell-specific media containing treatments added to each well. Cells were imaged on a ptychographic live cell imaging platform (Livecyte 2TM, Phasefocus) for 24-48 hours. Automated tracking of individual unlabeled cells will be combined with 3D cell measurements to quantify a range of wound-relevant cell parameters including scratch closure rate.
Dose range finding experiments were conducted with E4 (10^−10M to 10^−6M) and E2 with and without Mitomycin C (MMC, to inhibit proliferation) using vehicle as negative controls.
The assay was performed in the phenol red-free cell culture media containing charcoal stripped fetal bovine serum, using fibroblasts isolated from female C57Bl1/6 mice and from surplus abdominal skin donated by three female donors.

For experiment [3], the system named is mouse lymphoma cell line L5178Y TK^+/−. The experiment is described as follows: Generation of reactive oxygen species (ROS). The note with it: up to 3000 μM, 3 h exposure, vs vehicle control. The method, then:
The objective of the study was to investigate the generation of reactive oxygen species (ROS) induced by the test item, estetrol (E4), in a mouse lymphoma cell line L5178Y TK^+/−.
L5178Y TK^+/− cells in logarithmic phase of growth were plated in black 96 well cell culture plates at 1×10^4 cells in 90 μL of cell culture media. Controls and test item in triplicate were applied to the cells as a 10× concentrate in 10 μL of a 10% ethanol solution in PBS (final concentration of ethanol on plate was 1%). Cells were incubated for 3 hours at 37° C., 5% CO2, and the generation of ROS was evaluated by fluorescence with a ROS reagent: the ROS reagent was freshly prepared by dissolving one ampoule of reagent (50 μg) in 70 μL DMSO and further diluting this with 2.1 mL of pre-warmed PBS. 10 μL of ROS reagent was added to each well and the plate were shaken for 30 seconds in the dark. The plates were incubated approximately at 37° C., 5% CO2 for 1 h 30 min and fluorescence was read on a plate scanner with excitation at 492 nm and emission at 520 nm.

Take `C[C@]12CC[C@@H]3c4ccc(O)cc4CC[C@H]3[C@@H]1[C@@H](O)[C@@H](O)[C@@H]2O` [E4, 1,3,5 (10)-estratrien-3,15alpha,16alpha,17beta-tetrol]: in experiment [1], the “MMP2 (Matrix metalloproteinase-2) expression, FC” value was 1.1434 Fold Change (FC) and the “TIMP1 (Metalloproteinase inhibitor 1) expression, FC” value is given as 0.8949 Fold Change (FC). In addition, the “in vitro wound closure, mouse fibroblasts scratch assay” value in experiment [2] is on record as “promotes in vitro wound closure to a similar extent as E2”. Further, the “levels of ROS” value in experiment [3] is “dose-dependent decrease”.
